Test [1] addresses Recombinant human Aurora B (amino acids 1-344) (Homo sapiens (Human), UniProt Q96GD4). The test can be described thus: Aurora B kinase test (ADP Glo). The class given is biochemical. The procedure: The activity of the Aurora B kinase protein was determined using the ADP Glo® Luminescence Kinase test (Promega; V9103X). In this homogeneous test the amount of ADP remaining after the kinase reaction is quantified by a luciferin-luciferase reaction using luminescence. The luminescence signal obtained correlates with the amount of ADP still present and thus correlates with the activity of the protein kinase.
The test compounds were dissolved in 100% DMSO at a concentration of 10 mM and diluted in DMSO to a concentration of 5 mM. Serial Dilution is done in 1:10 steps in 100% DMSO. All further dilutions of the substances were carried out with test buffer (50 mM Hepes, pH 7.5, 10 mM MgCl2, 1 mM EGTA, 60 μM Ultra Pure ATP, 0.01% Brij35, 0.1% BSA, 5 mM 8-Glycerophosphate) until a concentration was reached which was 2.5 times above the final test concentration (final concentration of the compounds: 50 μM to 0.005 nM). 4 μl aliquots of these dilutions were transferred into a 384-well Optiplate (Perkin Elmer, #6007290). His-Aurora B was diluted to 125 nM in the test buffer and 4 μl of this dilution were used in the kinase test (final concentration of Aurora B=50 nM in a total volume of 10 μl). After 15 minutes incubation at room temperature 2 μl of 250 μM substrate ([[…]]; University of Dundee) in test buffer were added to each well and the incubation was continued for a further 60 minutes at room temperature.
(§1) Positive controls are the reaction mixtures that contain no test substance; negative controls (blanks) are reaction mixtures that contain no kinase.
After 60 minutes, 10 μl ADP-Glo® solution (ADP-Glo Reagent #V912B Promega) (heated to room temperature) were added to each well and incubation was continued for a further 40. minutes. Then 20 μl Kinase detection mix (Detection Buffer #V913B Promega; Kinase Detection Substrate #V914B Promega) were added and incubated for 40 minutes at room temperature. The plates were read in Envision Luminescence Reader (Perkin-Elmer).
(§2) The output file of the reader is a csv file that contains the well number and measured RLU. For data evaluation and calculation, the measurement of the negative control was set as 0% ctrl and the measurement of the positive control was set as 100% ctrl. Based on this values the % value for the measurement of each substance concentration can be calculated using an Assay Explorer software (e.g. Accelrys). Normally, the % ctrl values calculated are between 0% and 100% values but may also occur outside these limits in individual cases based on variability or compound characteristics. The IC50-values were calculated from the % ctrl values using Assay Explorer software. Calculation: [y=(a−d)/(1+(x/c)^b)+d], a=low value, d=high value; x=conc M; c=IC50 M; b=hill; y=% ctrl.

Test [2] deals with Recombinant human FLT3 (amino acids 564-958) (Homo sapiens (Human), UniProt P36888). In words: FLT3 kinase test (ADP Glo). The class given is biochemical. As for the experimental part: The activity of the FLT3 kinase protein was determined using the ADP Glo® Luminescence Kinase test (Promega; V9103X). In this homogeneous test the amount of ADP remaining after the kinase reaction is quantified by a luciferin-luciferase reaction using luminescence. The luminescence signal obtained correlates with the amount of ADP still present and thus correlates with the activity of the protein kinase.
The test compounds were dissolved in 100% DMSO at a concentration of 10 mM and diluted in DMSO to a concentration of 5 mM. Serial Dilution is done in 1:10 steps in 100% DMSO. All further dilutions of the substances were carried out with test buffer (50 mM Hepes, pH 7.5, 10 mM MgCl2, 1 mM EGTA, 0.01% Brij35, 0.1% BSA) until a concentration was reached which was 2.5 times above the final test concentration (final concentration of the compounds: 50 μM to 0.005 nM). […] FLT3 enzyme was diluted to 5 nM in the test buffer and 4 μl of this dilution were used in the kinase test (final concentration of FLT3=2 nM in a total volume of 10 μl). After 60 minutes incubation at room temperature 2 μl mixture of 2.5 mg/ml substrate (Poly-Glu/Tyr; Sigma #P0275) and 2.5 mM ultra-pure ATP (Promega #V915B) in test buffer were added to each well and the incubation was continued for a further 90 minutes at room temperature.
as §1
After 90 minutes, 10 μl ADP-Glo® solution (ADP-Glo Reagent #V912B Promega) (heated to room temperature) were added to each well and incubation was continued for a further 60. minutes. Then 20 μl Kinase detection mix (Detection Buffer #V913B Promega; Kinase Detection Substrate #V914B Promega) were added and incubated for 40 minutes at room temperature. The plates were read in Envision Luminescence Reader (Perkin-Elmer).
as §2, with “IC50 values” for “IC50-values”, “x=conc.” for “x=conc”
A general note: ADP-Glo turns the ADP formed in a reaction into a luminescent signal.

Setting [3] is: read-out: AURB inhibition IC50-value (chapter 5.3).
[4] abbreviates: read-out: FLT3 inhibition IC50-value (chapter 5.4).

SMILES strings stand for the structures. Where two headings read alike, the source gives them in different places.

Sequence of Recombinant human FLT3 (amino acids 564-958) (P36888 564-958): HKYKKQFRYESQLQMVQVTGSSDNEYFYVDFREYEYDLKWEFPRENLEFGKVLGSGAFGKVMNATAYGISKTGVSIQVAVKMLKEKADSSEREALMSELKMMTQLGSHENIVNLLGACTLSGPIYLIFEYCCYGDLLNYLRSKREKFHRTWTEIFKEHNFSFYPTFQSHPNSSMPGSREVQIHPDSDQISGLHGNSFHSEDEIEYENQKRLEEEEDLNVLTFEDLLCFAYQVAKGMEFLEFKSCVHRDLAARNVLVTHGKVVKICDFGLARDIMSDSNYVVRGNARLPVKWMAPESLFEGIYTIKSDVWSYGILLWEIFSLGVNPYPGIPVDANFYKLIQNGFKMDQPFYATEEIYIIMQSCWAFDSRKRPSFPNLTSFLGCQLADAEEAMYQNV
Sequence of Recombinant human Aurora B (amino acids 1-344) (Q96GD4 whole entry, the tested form may be a part): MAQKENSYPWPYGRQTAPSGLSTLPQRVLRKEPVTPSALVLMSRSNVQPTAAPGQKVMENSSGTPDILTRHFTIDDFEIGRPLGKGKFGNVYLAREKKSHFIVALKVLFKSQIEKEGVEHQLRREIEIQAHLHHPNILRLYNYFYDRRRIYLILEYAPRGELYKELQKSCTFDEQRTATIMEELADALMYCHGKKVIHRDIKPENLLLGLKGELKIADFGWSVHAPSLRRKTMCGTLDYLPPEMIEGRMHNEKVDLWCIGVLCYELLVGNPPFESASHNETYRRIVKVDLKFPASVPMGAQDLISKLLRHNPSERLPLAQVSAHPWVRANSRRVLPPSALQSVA

For orientation: IC50 means the concentration that gives 50% inhibition. With `Cc1c2c(O[C@H](C)[C@H]3CNC(=O)C3)nc(-c3c[nH]nc3C(C)(C)C)cc2nn1C` [Example 4, (R)-4-{(R)-1-[6-(3-tert-Butyl-1H-pyrazol-4-yl)-2,3-dimeth-yl-2H-pyrazolo[4,3-c]pyridin-4-yloxy]-ethyl}-pyrrolidin-2-one], the “selectivity ratio IC50(AURB)/IC50(SYK)” value in test [1] worked out at 29636. Moreover, the IC50 in test [1] (setting [3]) is 65.2 µM; in test [2] (setting [4]), 7410 nM.

In the case of `C[C@@H](Oc1cc(-c2cnn(C(C)(C)C)c2)cc2ncn(C)c12)[C@H]1CNC(=O)C1` [example 3B.22 on page 219 of WO15017610, reference compound], in test [1], the “selectivity ratio IC50(AURB)/IC50(SYK)” value worked out at 964. Further, the IC50 was found to be 0.771 µM in test [1] (setting [3]), 0.771 µM in test [1] (read-out: IC50(AURB)), 307 nM in test [2] (setting [4]) and 307 nM in test [2] (read-out: IC50(FLT3)).

For `C[C@@H](Oc1cc(-c2cnn(C3CC(C)(C)OC3(C)C)c2)cc2nn(C)c(F)c12)[C@H]1CNC(=O)C1` (stereo partly drawn) [Example 14, (R)-4-((R)-1-{3-Fluoro-2-methyl-6-[1-(2,2,5,5-tetramethyl-tetrahydro-furan-3-yl)-1H-pyrazol-4-yl]-2H-indazol-4-yloxy}-ethyl)-pyrrolidin-2-one], the “selectivity ratio IC50(AURB)/IC50(SYK)” value in test [1] amounted to 15625. The IC50 in test [1] (setting [3]) was determined as 50 µM; in test [2] (setting [4]) it was 4050 nM.

In the case of `Cc1c2c(O[C@H](C)[C@H]3CNC(=O)C3)cc(-c3cnn(C(C)(C)C#N)c3)cc2nn1C` [Example 17, 2-(4-{2,3-Dimethyl-4-[(R)-1-((R)-5-oxo-pyrrolidin-3-yl)-ethoxy]-2H-indazol-6-yl}-pyrazol-1-yl)-2-methyl-propionitrile], the “selectivity ratio IC50(AURB)/IC50(SYK)” value in test [1] came to 17241. Moreover, the figures for the IC50 in test [1] (setting [3]) and in test [2] (setting [4]) were 50 µM and 11300 nM, respectively.

In the case of `C[C@@H](Oc1cc(-c2cnn(C3CCC3)c2)cc2nn(C)c(F)c12)[C@H]1CNC(=O)C1` [Example 1, (R)-4-{(R)-1-[6-(1-Cyclobutyl-1H-pyrazol-4-yl)-3-fluoro-2-methyl-2H-indazol-4-yloxy]-ethyl}-pyrrolidin-2-one], the “selectivity ratio IC50(AURB)/IC50(SYK)” value in test [1] came out at 34800. In addition, the half-maximal inhibitory concentration (IC50) in test [1] (setting [3]) is 34.8 µM; in test [2] (setting [4]) it was 2230 nM.

As for `Cc1cnn2cc(-c3cnn(C(C)(C)C)c3)cc(O[C@H](C)[C@H]3CNC(=O)C3)c12` [example 6.09 on page 559 of WO15017610, reference compound], in test [1], the “selectivity ratio IC50(AURB)/IC50(SYK)” value is 370. For the same compound, the IC50 in test [1] (setting [3]) turned out to be 0.037 µM; in test [1] (read-out: IC50(AURB)), 0.037 µM; in test [2] (setting [4]), 25 nM; in test [2] (read-out: IC50(FLT3)) it was 25 nM.

For `Cc1c2c(O[C@H](C)[C@H]3CNC(=O)C3)cc(-c3cnn(C4CCC(F)(F)C4)c3)cc2nn1C` (stereo partly drawn) [Example 22, (R)-4-((R)-1-{6-[1-(3,3-Difluoro-cyclopentyl)-1H-pyrazol-4-yl]-2,3-dimethyl-2H-indazol-4-yloxy}-ethyl)-pyrrolidin-2-one], in test [1], the “selectivity ratio IC50(AURB)/IC50(SYK)” value was determined as 11207. In addition, the values for the IC50 in test [1] (setting [3]) and in test [2] (setting [4]) were 13.4 µM and 1950 nM, respectively.

Regarding `C[C@@H](Oc1cc(-c2cnn(CC3CC3)c2)cc2nn(C)c(F)c12)[C@H]1CNC(=O)C1` [Example 6, (R)-4-{(R)-1-[6-(1-Cycloprop-ylmethyl-1H-pyrazol-4-yl)-3-fluoro-2-methyl-2H-indazol-4-yloxy]-ethyl}-pyrrolidin-2-one], the “selectivity ratio IC50(AURB)/IC50(SYK)” value in test [1] was found to be 13115. In addition, the results for the IC50 in test [1] (setting [3]) and in test [2] (setting [4]) were 34.1 µM and 3730 nM, respectively.

As for `Cc1c2c(O[C@H](C)[C@H]3CNC(=O)C3)cc(-c3cnn(CC4CC4)c3)cc2nn1C` [Example 8, (R)-4-{(R)-1-[6-(1-Cyclopropylmethyl-1H-pyrazol-4-yl)-2,3-dimethyl-2H-indazol-4-yloxy]-ethyl}-pyrrolidin-2-one], the “selectivity ratio IC50(AURB)/IC50(SYK)” value in test [1] came to 15080. Moreover, the values for the IC50 in test [1] (setting [3]) and in test [2] (setting [4]) were 21.1 µM and 2070 nM, respectively.

Consider `Cc1c2c(O[C@H](C)[C@H]3CNC(=O)C3)cc(-c3cnn(CC(C)C)c3)cc2nn1C` [Example 19, (R)-4-{(R)-1-[6-(1-Isobutyl-1H-pyrazol-4-yl)-2,3-dimethyl-2H-indazol-4-yloxy]-ethyl}-pyrrolidin-2-one], for which the “selectivity ratio IC50(AURB)/IC50(SYK)” value in test [1] was determined as 13212. Further, the IC50 turned out to be 23.8 µM in test [1] (setting [3]) and 4950 nM in test [2] (setting [4]).
